# Earlier results as cited in US20110250279A1, “CONTROLLED-RELEASE COMPOSITION FOR PRODUCING SUSTAINED-RELEASE PREPARATION CONTAINING UDENAFIL” (Dong-A Pharm. Co., Ltd., priority 2008, published 2011).
# Columns and labels:
# [1] = phase 1 clinical tests (Koreans and Caucasians)
# [2] = not given; remark: listed apart in the source
# [3] = target: PDE-5 (Homo sapiens, UniProt O76074)
compound,measurement,setting,value
"CCCOc1ccc(S(=O)(=O)NCCC2CCCN2C)cc1-c1nc2c(CCC)nn(C)c2c(=O)[nH]1 (stereo not drawn) [Udenafil, 3-(1-methyl-7-oxo-3-propyl-4,7-dihydro-1H-pyrazolo[4,3-d]pyrimidin-5-yl)-N-[2-(1-methylpyrrolidin-2-yl)ethyl]-4-propoxybenzenesulfonamide]",volume of distribution in vivo,,large volume of distribution
same,absorption,in vivo,rapidly absorbed
same,bioavailability,in vivo,high bioavailability
same,half life relative to sildenafil or vardenafil,in vivo,about three times longer
same,serious abnormal reactions by drugs,[1],did not generate serious abnormal reactions
same,drug discontinuation rate,[2]; during the clinical tests,lowest
same,extent and frequency of side effects,"[2]; phase 2 and 3 clinical tests, versus conventional oral therapeutic agents for erectile dysfunction",lower
same,inhibitory activity for PDE-5,[3],strong inhibitory activity
same,selectivity for PDE-5,[3],high selectivity
